Assay results from patent publication US6919350B2 (priority 1996, dated 2005).
pEC50, pIC50: −log10 of the molar value. “And” between values parts separate entries of the source, which are not always exact repeats. Equal values may be shown once. “Also recorded” adds a separate entry of the source. Read-outs that look alike come from different tables or passages of the source.

Experiments:
[1] = biological target: T1, delta opioid receptor in the mouse vas deferens (Mus musculus, UniProt P32300); assay: Electrically stimulated mouse vas deferens, delta opioid agonist potency (ED50)
T1 construct: Vasa deferentia were removed from mice; from tissue; host or cells: mouse vas deferens (isolated organ bath)

rats [2] = assay: Tail-pinch analgesia during alfenta infusion with delta agonist (Example 14); assay type: in vivo, rat; conditions: continuous i.v. infusion of alfenta and i.v. bolus of various doses
Experimental: Analgesia was also assessed with a tail-pinch method at the same time points that blood was drawn.

rats [3] = conditions: rat, in vivo, iv
delta opioid receptor = biological target: T2, delta opioid receptor (Rattus norvegicus, UniProt P33533); assay: Delta receptor binding in rat brain membranes (Delta Receptor IC50)
T2 construct: Rat (Sprague-Dawley) brain membranes were prepared; from tissue; host or cells: rat (Sprague-Dawley) brain membranes
Experimental: The assay procedures used for such determinations of delta receptor activity are set out below.
Inhibition of receptor binding: Rat (Sprague-Dawley) brain membranes were prepared and binding assays were performed at 24° C. for 90 minutes as described by Chang, et al. (J. Biol. Chem. 254, 2610 (1979) and Mol. Pharmacol. 16, 91 (1979)) with a filtration method (GF/C filter). Delta receptor binding assays were performed with (^3H)-(+)-4-((α-R*)-α-((2S*,5R*)-4-Allyl-2,5-dimethyl-1-piperazinyl)-3-hydroxybenzyl)-N,N-diethylbenzamide (0.1 nM), having an activity of ˜48 Ci/mmole, or with ^3H-[D-Pen^2,D-Pen^5-(enkephalin)](^3H-DPDPE, 0.1 nM) having an activity of ˜50 Ci/mmole. Non-specific binding was determined in the presence of 1 mM of the unlabeled ligand. The potency of compounds in inhibiting the binding of (^3H)-(+)-4-((α-R*)-α-((2S*,5R*)-4-Allyl-2,5-dimethyl-1-piperazinyl)-3-hydroxy-benzyl)-N,N-diethylbenzamide or ^3H-DPDPE was determined as the concentration which reduced the binding of the labeled compounds by 50 percent (Delta Receptor IC50).

[4] = biological target: T1, delta opioid receptor in the mouse vas deferens; assay: Antagonist potency (pA2, Schild analysis) in electrically stimulated mouse vas deferens
Experimental: In vitro bioassays: Vasa deferentia were removed from mice and suspended between platinum electrodes with 0.5 g of tension in organ bath chambers containing a modified Krebs' buffer of the following composition (millimolar): NaCl, 118; KCl, 4.75; CaCl2, 2.6; KH2PO4, 1.20; NaHCO3, 24.5; and glucose, 11. The buffer was saturated with 95% O2/5% CO2 and kept at 37° C. Tissues were stimulated at supramaximal voltage with 10 Hz pulse trains for 400 msec.; train interval 10 seconds; and 0.5 msec pulse duration. […] The ED50 values were extrapolated from curves showing the dose concentration plotted against the response (Lord, et al., Nature 267, 495, (1977)).

in vivo = conditions: rat, iv
rats [5] = assay: animal or person; assay type: in vivo; conditions: Rattus norvegicus, iv, read-out: ED50 to produce analgesia
[6] = inhibition of electrically induced muscle contractions, read-out: Mouse Vas Deferens ED50
[7] = rat brain membranes, radioligand 3H-[D-Pen2,D-Pen5]-(enkephalin) 0.1 nM, read-out: Delta Receptor IC50
[8] = blockade of inhibitory effect of [D-Ala2,D-Leu5] enkephalin (footnote b)

T1 sequence (P32300 whole entry): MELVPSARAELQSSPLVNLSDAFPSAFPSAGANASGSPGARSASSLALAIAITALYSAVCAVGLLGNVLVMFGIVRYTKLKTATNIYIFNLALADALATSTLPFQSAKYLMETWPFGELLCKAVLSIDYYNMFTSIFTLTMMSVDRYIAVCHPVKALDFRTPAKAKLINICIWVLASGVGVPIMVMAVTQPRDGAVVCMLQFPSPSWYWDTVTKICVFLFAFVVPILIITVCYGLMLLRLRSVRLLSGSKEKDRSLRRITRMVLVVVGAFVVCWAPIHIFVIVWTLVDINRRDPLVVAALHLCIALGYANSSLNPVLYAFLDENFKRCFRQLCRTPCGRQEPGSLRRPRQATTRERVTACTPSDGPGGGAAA
T2 sequence (P33533 whole entry): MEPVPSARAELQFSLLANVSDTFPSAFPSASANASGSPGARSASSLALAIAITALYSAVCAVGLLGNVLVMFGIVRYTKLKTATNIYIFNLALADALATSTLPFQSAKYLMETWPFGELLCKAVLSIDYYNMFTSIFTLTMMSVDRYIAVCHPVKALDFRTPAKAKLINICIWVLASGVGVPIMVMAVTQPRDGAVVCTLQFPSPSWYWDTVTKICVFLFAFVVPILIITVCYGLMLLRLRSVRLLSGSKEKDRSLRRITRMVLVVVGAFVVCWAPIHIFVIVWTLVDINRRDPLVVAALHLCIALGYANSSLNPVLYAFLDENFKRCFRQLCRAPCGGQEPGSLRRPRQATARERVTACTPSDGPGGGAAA

Compound	pEC50 [1, 6]	pIC50 (delta opioid receptor; [7])	further results
CCCN1C[C@@H](C)N([C@@H](c2ccc(C(=O)N(CC)CC)cc2)c2cccc(O)c2)C[C@H]1C [Compound 4, (−)-4-((αS)-α-((2R,5R)-2,5-Dimethyl-4-propyl-1-piperazinyl)-3-hydroxybenzyl)-N,N-diethylbenzamide]	< 6.00	–	–
C=CCN1C[C@H](C)N([C@H](c2ccc(C(=O)N(CC)CC)cc2)c2cccc(O)c2)C[C@H]1C [BW373U86, (+)-4-((αR)-α-((2S,5R)-4-allyl-2,5-dimethyl-1-piperazinyl)-3-hydroxybenzyl)-N,N-diethylbenzamide]	–	–	effect on analgesia induced by alfenta (tail-pinch) (rats [2]): did not significantly affect the analgesia; effect on alfenta-induced respiratory depression (blood pCO2) (rats [3]): dose dependently reduced the level of pCO2; also recorded: blocks the respiratory depression
CCN(CC)C(=O)c1ccc([C@H](c2cccc(O)c2)N2C[C@@H](C)N(C)C[C@H]2C)cc1 [Compound 15, N,N-diethyl-4-(3-hydroxy-(αR)-α-((2R,5R)-2,4,5-trimethyl-1-piperazinyl)benzyl)benzamide]	–	8.55	–
3-((αR)-α-((2S,5S)-4-Allyl-2,5-dimethyl-1-piperazinyl)benzyl)phenol and 3-((αS)-α-((2S,5S)-4-Allyl-2,5-dimethyl-1-piperazinyl)benzyl)phenol [Compound 9]	6.35	8.82	–
C=CCN1C[C@H](C)N([C@@H](c2cccc(O)c2)c2cccc(C(N)=O)c2)C[C@H]1C (relative stereo) [Compound 6, (±)-3-((αR*)-α-((2S*,5R*)-4-Allyl-2,5-dimethyl-1-piperazinyl)-3-hydroxybenzyl)-benzamide]	7.60	8.40	–
C[C@H]1CN([C@H](c2ccc(C(=O)N3CCCC3)cc2)c2cccc(O)c2)[C@@H](C)CN1C [Compound 13, 3-((αR)-4-(1-pyrrolidinylcarbonyl)-α-((2S,5S)-2,4,5-trimethyl-1-piperazinyl)benzyl)phenol]	6.70	9.52 and 9.10	–
CCN(CC)C(=O)c1ccc([C@H](c2cccc(O)c2)N2C[C@H](C)NC[C@H]2C)cc1 (relative stereo) [Compound 22, (±)-4-((αR*)-α-((2R*,5S*)-2,5-Dimethyl-1-piperazinyl)-3-hydroxybenzyl)-N,N-diethylbenzamide]	5.36	9.15	–
C=CCN1C[C@H](C)N([C@H](c2ccc(C(=O)N(C)CC)cc2)c2cccc(O)c2)C[C@@H]1C [Compound 8, 4-((αR)-α-((2S,5S)-4-Allyl-2,5-dimethyl-1-piperazinyl)-3-hydroxybenzyl)-N-ethyl-N-methylbenzamide]	7.52	9.07	–
CCN(CC)C(=O)c1ccc([C@H](c2cccc(O)c2)N2C[C@@H](C)NC[C@H]2C)cc1 [Compound 7, N,N-Diethyl-4-((αR)-3-hydroxy-α-((2R,5R)-2,5-dimethyl-1-piperazinyl)benzyl)benzamide]	6.25	8.96	–
cis-4-(α-(3,5-Dimethyl-4-(methylallyl)-1-piperazinyl)-3-hydroxybenzyl)-N,N-diethylbenzamide [Compound 24]	7.70	–	–
CCN(CC)C(=O)c1ccc([C@@H](c2cccc(O)c2)N2C[C@H](C)N(C)C[C@@H]2C)cc1 [Compound 14, (+)N,N-Diethyl-4-(3-hydroxy-(αS)-α-((2S,5S)-2,4,5-trimethyl-1-piperazinyl)benzyl)-benzamide]	–	8.70	Kb [4, 8]: 79.4 nM
C=CCN1C[C@H](C)N([C@H](c2ccccc2)c2cccc(O)c2)C[C@H]1C (relative stereo) [Compound 20, (±)-3-((αR*)-α-((2S*,5R*)-4-Allyl-2,5-dimethyl-1-piperazinyl)benzyl)phenol]	7.11	8.89	–
C=CCN1C[C@H](C)N([C@H](c2ccc(C(N)=O)cc2)c2cccc(O)c2)C[C@@H]1C [Compound 5]	6.59	8.80	–
C=CCN1[C@H](C)CN(C(c2ccc(C(=O)N(CC)CC)cc2)c2cccc(O)c2)C[C@@H]1C (mixture of isomers) [Compound 23, (±)-cis-4-(α-(4-Allyl-3,5-dimethyl-1-piperazinyl)-3-hydroxybenzyl)-N,N-diethylbenzamide]	7.38	8.48	–
C=CCN1C[C@@H](C)N([C@H](c2ccc(S(C)(=O)=O)cc2)c2cccc(O)c2)C[C@@H]1C (relative stereo) [Compound 18, (±)-3-((αR*)-α-((2R*,5S*)-4-allyl-2,5-dimethyl-1-piperazinyl)-4-(methylsulfonyl)benzyl)phenol]	6.60	8.89	–
C=CCN1C[C@@H](C)N([C@H](c2ccc(C(=O)N(CC)CC)cc2)c2cccc(O)c2)C[C@H]1C (stereo in doubt) [Compound 1, (−)-4-((αR)-α-((2R,5R)-4-allyl-2,5-dimethyl-1-piperazinyl)-3-hydroxybenzyl)-N,N-diethylbenzamide]	–	–	pEC50 [1]: 7.37; pIC50 (delta opioid receptor): 8.70
C=CCN1C[C@@H](C)N([C@H](c2ccc(S(=O)(=O)N(C)C)cc2)c2cccc(O)c2)C[C@@H]1C (relative stereo) [Compound 19, (±)-4-((αR*)-α-((2R*,5S*)-4-Allyl-2,5-dimethyl-1-piperazinyl)-3-hydroxybenzyl)-N,N-dimethylbenzenesulfonamide]	7.43	8.59	–
C[C@H]1CN([C@H](c2ccc(C(=O)N3CCCCC3)cc2)c2cccc(O)c2)[C@@H](C)CN1C [Compound 12, 3-((αR)-4-(piperidinocarbonyl)-α-((2S,5S)-2,4,5-trimethyl-1-piperazinyl)benzyl)phenol]	6.60	8.92	–
C=CCN1C[C@H](C)N([C@@H](c2cccc(O)c2)c2cccc(C(=O)N(C)c3cccc(F)c3)c2)C[C@H]1C [Compound 3290W93]	–	–	ED50 (in vivo): 2 mg/kg; ED50 (rats [5]): 0.08 mg/kg
CCN(C)C(=O)c1ccc([C@H](c2cccc(O)c2)N2C[C@H](C)N(C)C[C@@H]2C)cc1 [Compound 16, N-ethyl-4-((αR)-3-hydroxy-α-((2S,5S)-2,4,5-trimethyl-1-piperazinyl)benzyl)-N-methylbenzamide]	–	8.51	Kb [4, 8]: 63.1 nM
C=CCN1C[C@H](C)N([C@H](c2ccc(C(N)=O)cc2)c2cccc(O)c2)C[C@H]1C (relative stereo) [Compound 21, (±)-4-((αR*)-α-((2S*,5R*)-4-Allyl-2,5-dimethyl-1-piperazinyl)-3-hydroxybenzyl)benzamide]	7.36	8.80	–
C=CCN1C[C@@H](C)N([C@@H](c2ccc(C(=O)N(CC)CC)cc2)c2cccc(O)c2)C[C@H]1C [Compound 2, (−)-4-((αS)-α-((2R,5R)-4-Allyl-2,5-dimethyl-1-piperazinyl)-3-hydroxybenzyl)-N,N-diethylbenzamide]	–	–	pIC50 (delta opioid receptor): 9.00
C/C=C\CN1[C@H](C)CN(C(c2ccc(C(=O)N(CC)CC)cc2)c2cccc(O)c2)C[C@@H]1C (relative stereo) [Compound 17, cis-4-(α-(4-((Z)-2-butenyl)-3,5-dimethyl-1-piperazinyl)-3-hydroxybenzyl)-N,N-diethylbenzamide]	–	8.82	Kb ([4]; blockade of inhibitory effect of (±)-4-((α-R*)-α-((2S*,5R*)-4-allyl-2,5-dimethyl-1-piperazinyl)-3-hydroxybenzyl)-N,N-diethylbenzamide (footnote c)): 6.31 nM
CCN(CC)C(=O)c1ccc([C@H](c2cccc(O)c2)N2C[C@H](C)N(C)C[C@H]2C)cc1 (relative stereo) [Compound 10, (±)-N,N-diethyl-4-((αR*)-3-hydroxy-α-((2R*,5S*)-2,4,5-trimethyl-1-piperazinyl)benzyl)benzamide]	7.05	8.96	melting point: 220 to 221 °C
